# Reference: patent US10703798B2, “Methods of cancer therapy by inhibiting fusion polypeptides comprising fibroblast growth factor receptor 2 (FGFR2) and vinculin (VCL)” (DEBIOPHARM INTERNATIONAL SA, priority 2014, dated 2020)
# Entries after “also recorded” stand apart in the source; their conditions may differ. Where two headings read alike, the source gives them in different places.
# Assays:
# [1] = tested on: FGFR2-VCL expressing Rat2 cells; assay: Cell proliferation assay using Cell Titer Glo, FGFR2-VCL expressing cells; assay type: cell-based, rat; settings: 72 h with inhibitor, cellular ATP content (Cell Titer Glo), read-out: Relative IC50
# Protocol: (§1) Stable Rat2 cell pools stably expressing FGFR2-CCDC147 or FGFR2-VCL fusions, respectively, were generated using pExoIN2-based expression plasmids ExoIN2-FGFR2_CCDC147 and pExoIN2-FGFR2_VCL. pExoIN2 was obtained from Trenzyme, (Germany). The latter expression plasmids were introduced into Rat2 cells by electroporation (LONZA Nucleofector II Device/program [X-005], Solution R). 24 h post-transduction, cells were subjected to 1.5 µg/mL puromycin to derive stable expressor cell pools. The FGFR2-CCDC147 sequence used in this example was composed of SEQ ID NO: 16 for the FGFR2 part (nucleic acid 1 to nucleic acid 2574) and SEQ ID NO: 20 for the CCDC147 part (nucleic acid 156 to nucleic acid 3313). The FGFR2-VCL sequence used was composed of SEQ ID NO: 16 for the FGFR2 part (nucleic acid 1 to nucleic acid 2574) and SEQ ID NO: 18 for the VCL part (nucleic acid 2117 to nucleic acid 5482).
# (§2) Rat2 cells obtained as per Example 4 (either parental cells or cells expressing FGFR2-VCL or FGFR2-CCDC147 fusion polypeptide) were used in this assay. Cells were seeded in 96 well plates and cultured for 24 h before addition of FGFR inhibitors (the same as in section (1) above). After 72 h of further incubation, cell growth was analyzed by determination of the cellular ATP content (Cell Titer Glo; Promega) using a luminescence plate reader.
# [2] = tested on: FGFR2-VCL expressing Rat2 cells; assay: Cell proliferation assay using FACS, FGFR2-VCL expressing cells; assay type: cell-based, rat; settings: 72 h with inhibitor, cells counted by FACS, read-out: Relative IC50
# Protocol: (§3) At the end of the incubation period, cells were counted by FACS. IC50 values were calculated in Graphpad Prism 6 using sigmoidal response (variable slope) curve fit.
# [3] = tested on: Rat2-FGFR2-CCDC147 tumor; assay: In vivo sensitivity, subcutaneously implanted Rat2-FGFR2-CCDC147 tumor model; parameters: species or system female NMRI nude mice; settings: 30 and 60 mg/kg orally once daily for 14 consecutive days
# Protocol: On Day 0, 5×10^6 FGFR2-CCDC147-expressing Rat2 cells in 100 μl PBS were subcutaneously implanted into the left flank of 5-6 week-old female NMRI nude mice (group size of 6 animals). […] Primary tumor sizes were measured twice weekly by calipering. Animals were terminated on last day of treatment and tumors weighed at necropsy.
# [4] = tested on: FGFR2-CCDC147 expressing Rat2 cells; assay: Cell proliferation assay using FACS, FGFR2-CCDC147 expressing cells; assay type: cell-based, rat; settings: 72 h with inhibitor, cells counted by FACS, read-out: Relative IC50
# Protocol: as §3
# [5] = tested on: Rat2 parental cells; assay: Cell proliferation assay using FACS, parental cells; assay type: cell-based, rat; settings: 72 h with inhibitor, cells counted by FACS, read-out: Relative IC50
# Protocol: as §1
# [6] = tested on: FGFR2-CCDC147 expressing Rat2 cells; assay: Cell proliferation assay using Cell Titer Glo, FGFR2-CCDC147 expressing cells; assay type: cell-based, rat; settings: 72 h with inhibitor, cellular ATP content (Cell Titer Glo), read-out: Relative IC50
# Protocol: as §1, §2
# [7] = tested on: Rat2 parental cells; settings: read-out: Relative IC50, 72 h with inhibitor, cellular ATP content (Cell Titer Glo)
# Protocol: as §1, §2
# [8] = tested on: Rat2-FGFR2-VCL tumor; assay: In vivo sensitivity, subcutaneously implanted Rat2-FGFR2-VCL tumor model; parameters: species or system female NMRI nude mice
# Protocol: On Day 0, 1×10^6 FGFR2-VCL expressing Rat2 cells in 100 μl PBS were subcutaneously implanted into the left flank of 5-6 week-old female NMRI nude mice (group size of 6 animals).
# Primary tumor sizes were measured twice weekly by calipering. Animals were terminated on last day of treatment and tumors weighed at necropsy.
# [9] = biological target: T1, FGFR2-CCDC147 fusion polypeptide (Homo sapiens, UniProt P21802); assay: Autophosphorylation of FGFR2-CCDC147 in transiently transfected HEK293T cells, Western blot; assay type: cell-based; settings: FGFR2-CCDC147-expressing HEK293T cells, 1E-05 M, 90 min
# T1 construct: CCDC147 (CFAP58) polypeptide part (fusion partner, same polypeptide); expressed in transfected cells; host or cells: HEK293T; the other entry of the earlier key: CFAP58 (Q5T655, Cilia- and flagella-associated protein 58)
# T1 sequence (P21802 with tags, fused parts or gaps): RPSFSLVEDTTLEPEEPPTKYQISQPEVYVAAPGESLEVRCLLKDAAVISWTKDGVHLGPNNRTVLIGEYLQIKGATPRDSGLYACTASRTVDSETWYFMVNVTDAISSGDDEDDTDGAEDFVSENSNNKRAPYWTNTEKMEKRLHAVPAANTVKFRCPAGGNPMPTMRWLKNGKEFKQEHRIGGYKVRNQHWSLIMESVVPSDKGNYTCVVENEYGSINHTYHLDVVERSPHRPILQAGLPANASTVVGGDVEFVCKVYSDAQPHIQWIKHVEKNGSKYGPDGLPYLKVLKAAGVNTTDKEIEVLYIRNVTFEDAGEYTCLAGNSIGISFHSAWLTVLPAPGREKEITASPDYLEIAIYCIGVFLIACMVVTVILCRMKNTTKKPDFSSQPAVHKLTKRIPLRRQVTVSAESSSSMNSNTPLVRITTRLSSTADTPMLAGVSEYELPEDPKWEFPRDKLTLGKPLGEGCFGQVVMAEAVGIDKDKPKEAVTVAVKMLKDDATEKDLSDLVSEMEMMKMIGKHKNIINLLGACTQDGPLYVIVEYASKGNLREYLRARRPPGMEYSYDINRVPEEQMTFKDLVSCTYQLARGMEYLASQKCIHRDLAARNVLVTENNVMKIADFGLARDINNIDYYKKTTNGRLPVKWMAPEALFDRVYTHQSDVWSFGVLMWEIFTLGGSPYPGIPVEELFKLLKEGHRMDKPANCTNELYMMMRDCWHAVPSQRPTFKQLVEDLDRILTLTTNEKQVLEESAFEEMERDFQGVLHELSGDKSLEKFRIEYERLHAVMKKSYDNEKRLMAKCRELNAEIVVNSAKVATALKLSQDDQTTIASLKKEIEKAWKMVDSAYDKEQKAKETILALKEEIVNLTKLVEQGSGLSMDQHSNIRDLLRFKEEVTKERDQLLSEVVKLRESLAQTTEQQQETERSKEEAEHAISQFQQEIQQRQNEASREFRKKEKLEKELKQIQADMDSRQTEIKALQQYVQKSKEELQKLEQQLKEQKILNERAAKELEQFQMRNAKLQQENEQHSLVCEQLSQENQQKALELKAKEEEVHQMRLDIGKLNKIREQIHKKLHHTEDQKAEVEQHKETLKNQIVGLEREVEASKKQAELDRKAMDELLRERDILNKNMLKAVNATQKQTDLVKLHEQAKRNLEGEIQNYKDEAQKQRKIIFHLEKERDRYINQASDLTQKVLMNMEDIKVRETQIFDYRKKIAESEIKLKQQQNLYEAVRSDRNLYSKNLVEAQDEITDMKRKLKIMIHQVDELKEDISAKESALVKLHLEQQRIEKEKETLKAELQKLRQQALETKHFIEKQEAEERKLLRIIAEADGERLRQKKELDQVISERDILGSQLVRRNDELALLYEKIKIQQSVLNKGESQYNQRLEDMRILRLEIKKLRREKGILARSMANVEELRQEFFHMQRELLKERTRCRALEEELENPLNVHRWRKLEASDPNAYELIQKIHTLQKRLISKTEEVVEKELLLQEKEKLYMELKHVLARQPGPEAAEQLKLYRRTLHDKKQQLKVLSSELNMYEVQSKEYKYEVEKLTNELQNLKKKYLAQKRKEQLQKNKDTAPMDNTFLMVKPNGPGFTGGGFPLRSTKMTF
# From the text: (§4) In this example, the following sequences were used: the FGFR2-CCDC147 fusion gene was composed of SEQ ID NO: 16 for the FGFR2 part (nucleic acid 1 to nucleic acid 2574) and SEQ ID NO: 20 for the CCDC147 part (nucleic acid 156 to nucleic acid 3313); and the FGFR2-VCL fusion gene was composed of SEQ ID NO: 16 for the FGFR2 part (nucleic acid 1 to nucleic acid 2574) and SEQ ID NO: 18 for the VCL part (nucleic acid 2117 to nucleic acid 5482).
# (§5) HEK293T cells were transiently transfected with expression plasmids containing either an FGFR2-VCL or an FGFR2-CCDC147 fusion gene, which genes had been supplemented with a C-terminal double myc-tag extension. As a negative control, HEK293T cells were mock-transfected. […] The expression of myc-tagged fusion polypeptide was determined using the anti-myc antibody 9E10 (α-myc), and the phosphorylation analysis was performed with the anti-phospho-tyrosine antibody pY99 (α-pY).
# [10] = biological target: T1, FGFR2-CCDC147 fusion polypeptide; assay: Autophosphorylation of FGFR2-CCDC147 in transiently transfected HEK293T cells, sandwich phosphotyrosine ELISA; assay type: cell-based; settings: FGFR2-CCDC147-expressing HEK293T cells, 1E-05 M, 90 min
# From the text: as §4
# (§6) After treatment, autophosphorylation of the FGFR2 fusion polypeptides was analysed using a sandwich phosphotyrosine ELISA. Each condition was done in duplicates.
# [11] = biological target: T2, FGFR2-VCL fusion polypeptide (Homo sapiens, UniProt P21802); assay: Autophosphorylation of FGFR2-VCL in transiently transfected HEK293T cells, sandwich phosphotyrosine ELISA; assay type: cell-based; settings: FGFR2-VCL-expressing HEK293T cells, 1E-05 M, 90 min
# T2 construct: VCL polypeptide part (fusion partner, same polypeptide); expressed in transfected cells; host or cells: HEK293T; the other entry of the earlier key: VCL (P18206, Vinculin)
# T2 sequence (P21802 with tags, fused parts or gaps): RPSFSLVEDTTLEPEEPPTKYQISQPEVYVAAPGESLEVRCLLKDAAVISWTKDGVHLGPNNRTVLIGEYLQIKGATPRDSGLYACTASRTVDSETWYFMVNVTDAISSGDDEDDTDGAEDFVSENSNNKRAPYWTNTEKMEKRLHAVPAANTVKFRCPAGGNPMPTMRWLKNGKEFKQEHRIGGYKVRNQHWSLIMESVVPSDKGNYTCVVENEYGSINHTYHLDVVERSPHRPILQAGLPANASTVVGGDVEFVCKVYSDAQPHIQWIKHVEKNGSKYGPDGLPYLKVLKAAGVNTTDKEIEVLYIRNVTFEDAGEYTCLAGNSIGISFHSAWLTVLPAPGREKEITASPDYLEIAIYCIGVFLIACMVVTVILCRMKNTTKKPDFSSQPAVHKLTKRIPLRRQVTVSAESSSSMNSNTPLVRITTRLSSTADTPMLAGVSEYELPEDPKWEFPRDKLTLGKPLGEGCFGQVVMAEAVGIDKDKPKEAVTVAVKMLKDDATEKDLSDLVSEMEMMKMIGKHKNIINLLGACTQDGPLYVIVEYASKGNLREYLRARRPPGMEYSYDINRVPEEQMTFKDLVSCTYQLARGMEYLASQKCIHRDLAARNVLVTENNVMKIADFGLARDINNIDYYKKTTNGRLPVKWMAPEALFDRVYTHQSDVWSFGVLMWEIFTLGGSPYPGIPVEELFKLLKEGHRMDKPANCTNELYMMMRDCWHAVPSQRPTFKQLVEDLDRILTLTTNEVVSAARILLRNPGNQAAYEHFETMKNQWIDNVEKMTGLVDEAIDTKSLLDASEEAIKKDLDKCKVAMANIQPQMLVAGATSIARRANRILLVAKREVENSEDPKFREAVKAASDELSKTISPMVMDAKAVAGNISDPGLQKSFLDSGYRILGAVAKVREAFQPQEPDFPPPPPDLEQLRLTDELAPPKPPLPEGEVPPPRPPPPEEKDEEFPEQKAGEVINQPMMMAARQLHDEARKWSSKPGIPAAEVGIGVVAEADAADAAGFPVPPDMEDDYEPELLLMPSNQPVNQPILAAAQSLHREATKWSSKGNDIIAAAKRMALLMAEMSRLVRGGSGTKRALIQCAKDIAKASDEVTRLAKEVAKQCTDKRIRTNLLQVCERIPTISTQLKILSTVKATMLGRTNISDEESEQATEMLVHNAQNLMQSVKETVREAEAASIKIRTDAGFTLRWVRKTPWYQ
# From the text: as §4, §6
# [12] = biological target: T2, FGFR2-VCL fusion polypeptide; assay: Autophosphorylation of FGFR2-VCL in transiently transfected HEK293T cells, Western blot; assay type: cell-based; settings: FGFR2-VCL-expressing HEK293T cells, 1E-05 M, 90 min
# From the text: as §4, §5
autophosphorylation of fusion polypeptide (anti-phospho-tyrosine Western blot) [9],levels of FGFR phosphorylation (phosphotyrosine ELISA) [10],levels of FGFR phosphorylation (phosphotyrosine ELISA) [11],autophosphorylation of fusion polypeptide (anti-phospho-tyrosine Western blot) [12],SMILES,IC50 [1] [nM],IC50 [2] [nM],effect on body weight [3],antitumor efficacy (tumor growth) ([3]; established tumors),IC50 [4] [nM],IC50 [5] [nM],IC50 [6] [nM],IC50 [7] [nM],"antitumor efficacy (tumor growth) ([8]; 60 mg/kg-treated group, orally once daily for 14 consecutive days)","antitumor efficacy (tumor growth) ([8]; 30 and 60 mg/kg orally once daily for 14 consecutive days, established tumors)",effect on body weight ([8]; 30 or 60 mg/kg orally once daily for 14 consecutive days)
–,–,–,–,Cc1nc2cc(-n3ncc(C(=O)c4cc5ccccc5[nH]4)c3N)ccc2[nH]1 [Compound A],0.53,227,no significant effect,inhibited tumor growth; also recorded: highly significant antitumoral efficacy,14.7,> 1020,73.4,> 3000,Tumor stasis,inhibited tumor growth; also recorded: highly significant and dose-dependent antitumoral efficacy,without significantly affecting body weight
somewhat more marginally,decreased,decreased,substantially reduced,COC(=O)c1ccc2c(c1)NC(=O)/C2=C(\Nc1ccc(N(C)C(=O)CN2CCN(C)CC2)cc1)c1ccccc1 [Vargatef],–,–,–,–,–,–,–,–,–,–,–
